Active and inactive are the calls of the source. The calls are words filed in the database; no cut-off is given here.
What was measured:
PC-12 [1] = test: Cytotoxicity against rat PC12 cells by MTT assay; type: cell-based
Neural stem cell [2] = test: Induction of neuronal differentiation in C57BL/6J mouse neural stem cells assessed as Map2 mRNA expression at 1 uM measured after 4 days by RT-PCR analysis; type: functional, cell-based
Neural stem cell [3] = test: Induction of neuronal differentiation in C57BL/6J mouse neural stem cells assessed as expression of Map2 at 1 uM administered every 2 days for 4 days by CF594/DAPI immunostaining based fluorescence microscopic microscopic analysis; type: functional
PC-12 [4] = test: Induction of neurite elongation in rat PC12 cells assessed as […] mRNA expression at 1 uM; type: functional, cell-based

`CC1=C(C/C=C(\C)CC/C=C(\C)Cc2c(C)cc(C)cc2C)C(=O)c2ccccc2C1=O` was tested, and the Activity (PC-12 [1]) was “Non-Toxic”.
For `CC1=C(C/C=C(\C)CC/C=C(\C)Cc2ccc(C)c(C)c2)C(=O)c2ccccc2C1=O`, the Activity (PC-12 [1]) was “Non-Toxic”, the Activity (Neural stem cell [2]) was “Active” and the Activity (Neural stem cell [3]) was “inactive”.
For `CC1=C(C/C=C(\C)CC/C=C(\C)CC/C=C(\C)Cc2cccc(C(C)(C)C)c2)C(=O)c2ccccc2C1=O`, the Activity (PC-12 [1]) was “Non-Toxic”, the Activity (Neural stem cell [2]) was “Active” and the Activity (Neural stem cell [3]) was “Active”.
With `CC1=C(C/C=C(\C)CC/C=C(\C)CC/C=C(\C)Cc2ccc(C)cc2C)C(=O)c2ccccc2C1=O` the Activity (PC-12 [1]) was “Non-Toxic”.
In the case of `CC1=C(C/C=C(\C)CC/C=C(\C)CC/C=C(\C)Cc2ccc(C)c(C)c2)C(=O)c2ccccc2C1=O`, the Activity (PC-12 [1]) is reported as “Non-Toxic”.
In the case of `CC1=C(C/C=C(\C)CC/C=C(\C)Cc2cccc(C)c2C)C(=O)c2ccccc2C1=O`, the Activity (PC-12 [1]) is reported as “Non-Toxic”, the Activity (Neural stem cell [2]) is reported as “Active” and the Activity (Neural stem cell [3]) is reported as “inactive”.
In the case of `CC1=C(C/C=C(\C)CC/C=C(\C)Cc2ccc(C)cc2C)C(=O)c2ccccc2C1=O`, the Activity (PC-12 [1]) is reported as “Non-Toxic”.
For `CC1=C(C/C=C(\C)CC/C=C(\C)CC/C=C(\C)Cc2cccc(C)c2C)C(=O)c2ccccc2C1=O`, the Activity (PC-12 [1]) was “Non-Toxic”.
With `CC1=C(C/C=C(\C)CC/C=C(\C)Cc2cccc(C(C)(C)C)c2)C(=O)c2ccccc2C1=O` the Activity (PC-12 [1]) was “Non-Toxic”, the Activity (Neural stem cell [2]) was “Active” and the Activity (Neural stem cell [3]) was “Active”.
`CC1=C(C/C=C(\C)CC/C=C(\C)Cc2cc(C)cc(C)c2)C(=O)c2ccccc2C1=O` was tested, and the Activity (PC-12 [1]) was “Non-Toxic”.
For `CC(C)=CCC/C(C)=C/CC/C(C)=C/CC/C(C)=C/CC1=C(C)C(=O)c2ccccc2C1=O` [MENATETRENONE], the Activity (PC-12 [1]) was “Non-Toxic”, the Activity (PC-12 [4]) was “inactive” and the Activity (Neural stem cell [2]) was “Active”.
For `CC1=C(C/C=C(\C)CC/C=C(\C)CC/C=C(\C)Cc2c(C)cc(C)cc2C)C(=O)c2ccccc2C1=O`, the Activity (PC-12 [1]) was “Non-Toxic”.
For `CC1=C(C/C=C(\C)CC/C=C(\C)CC/C=C(\C)Cc2cc(C)cc(C)c2)C(=O)c2ccccc2C1=O`, the Activity (PC-12 [1]) was “Non-Toxic”.

— ChEMBL document CHEMBL4043253, “Synthesis of novel vitamin K derivatives with alkylated phenyl groups introduced at the ω-terminal side chain and evaluation of their neural differentiation activities” (Bioorg Med Chem Lett, 2017)
